The text below walks through data of article PMC12644462, “A novel radiosensitizer α-sulfoquinovosyl-acylpropanediol (SQAP) inhibits DNA repair pathways and sensitize cells to cancer chemotherapeutic agents” (Scientific Reports, 2025).

Series [1] has as its system Chinese hamster V79 cells. The series can be described thus: Colony formation assay, radio- and chemosensitization. The series is classed as cell-based. Here is the method:
For hypoxia irradiation, cell cultures were placed in Aneropak Kenki system (Mitsubishi Gas Chemical, Tokyo, Japan) with oxygen meter to confirm pO2 below 0.1%. Cells were kept in hypoxia for 3 h before irradiation.

Series [2] concerns NHEJ activity in HeLa EJ5-GFP cells. Description: EJ5-GFP DNA repair reporter assay. It counts as cell-based, human. The conditions noted are these: 30 µM SQAP, p < 0.05. The procedure: HR and NHEJ activities were assessed using the DR-GFP reporter system[25] and the EJ5-GFP reporter system, respectively. pDRGFP and pCBASceI were gifts from Dr. Maria Jasin (Addgene plasmid #26475 and #26477). pimEJ5GFP was a gift from Dr. Jeremy Stark (Addgene plasmid # 44026). The assays were performed as previously described. Briefly, HeLa cells expressing DR-GFP, or EJ5-GFP were transfected with a plasmid encoding an I-SceI endonuclease using FuGENE HD transfection reagent (Promega, Madison, WI, USA). HR and NHEJ frequencies were analyzed by counting GFP positive cells with a FACS Lyric flow cytometer (BD Biosciences, San Jose, CA, USA) at 48 h post-transfection. Drug treatment was performed 3 h after transfection, and medium was replaced with the drug until FACS analysis. Relative HR and NHEJ efficiencies were calculated by normalizing to control cell values. A total of 50,000 cells were counted for each condition.
For orientation: Reporter assays use an easily measured gene product as a stand-in for the process of interest.

Series [3] relates to CHO wild type, EM9, xrs5 and 51D1 cells. Description: Sister chromatid exchange assay. It counts as cell-based, Chinese hamster. Here is the method: CHO cells were synchronized into G1 phase using mitotic shake-off method. Cells in the G1 phase were irradiated, and 10 µM of BrdU was added. After 20 h, colcemid was added for 6 h to arrest cells in metaphase. Collected cells were treated with hypotonic KCl solution and fixed using methanol: acetic acid (3:1) as the standard method. Metaphase chromosome spread was prepared on glass slides and treated with 5 µg/mL of Hoechst 33258 solution for 15 min and exposed to UVB for 15 min and treated with 2X SSC solution at 80 °C for 15 min. Cells were stained with 5% Giemsa stain solution. At least 50 metaphase spreads were analyzed for SCE scoring per experiment.

Series [4] has as its system CHO cells. The series can be described thus: Chromosome aberration assay. The conditions noted are these: G1-irradiated CHO cells, 4 Gy, with SQAP. It counts as cell-based, Chinese hamster. The procedure:
Two hours after mitotic shake-off and replating, CHO cells in the G1 phase were irradiated. After 10 h, colcemid was added for 6 h to collect metaphase cells. Chromosome spreads were prepared as sister chromatid exchange assay and stained with a 5% Giemsa stain. At least 50 metaphase spreads were scored in three independent experiments.

Series [5] has as its system CHO cells. Description: G2 premature chromosome condensation (PCC) assay. It counts as cell-based, Chinese hamster. Here is the method:
Following treatment with SQAP for 1 h, exponentially growing CHO cells were irradiated and treated with 50 nM of Calyculin A (Sigma-Aldrich) for 30 min as previously described. Cells were then fixed and stained as chromosome aberration analysis. Under a Zeiss Axioskop microscope, chromatid gaps, breaks, iso-breaks and exchanges were all scored as G2-PCC chromatid breaks. At least 50 PCC-spreads were scored in three independent experiments.

Series [6] relates to Chinese hamster V79 cells. The series can be described thus: Colony formation assay, radio- and chemosensitization. The series is classed as cell-based. The conditions noted are these: V79, gamma-rays, normoxic condition.
The test system of series [7] is HDAC1 expression. Set-up: method as in PMID 33577659. The conditions noted are these: hypoxic conditions ref 11; cited from earlier work.
Series [8] deals with poly (ADP-ribose) polymerase (PARP). Set-up: method as in PMID 37973295. The conditions noted are these: cited from earlier work.
For series [9], the system named is poly (ADP-ribose) glycohydrolase (PARG). Set-up: method as in PMID 37973295. The conditions noted are these: cited from earlier work.
In series [10] the test system is dogs and cats with cancer. The conditions noted are these: dogs and cats with cancer receiving radiation therapy ref 8, 9; cited from earlier work.
The conditions of series [11]: in vivo ref 34; cited from earlier work.

On to `CCCCCCCCCCCCCCCCCC(=O)OCCCO[C@H]1O[C@H](CS(=O)(=O)O)[C@@H](O)[C@H](O)[C@H]1O` [SQAP, Alpha-sulfoquinovosylacyl-1,3-propanediol], for which the radiosensitization entry in series [1] (V79, SQAP pretreatment alone) is “did not enhance radiation sensitivity”; in [1] (V79, continuous SQAP treatment before and after irradiation, normoxic and hypoxic), “Radiosensitization was observed”. In [2], the NHEJ activity entry is recorded as “significantly reduced”. Further, the “spontaneous sister chromatid exchange formation” value in [3] (51D1 (rad51d mutant, HR deficient), non toxic SQAP concentrations) is “no reduction”; in [3] (CHO wild type, 5 to 20 µM SQAP, significant from 10 µM) it was “reduced”; in series [3] (EM9 (XRCC1 mutant), 5 to 20 µM SQAP, significant from 10 µM), “reduced”; in [3] (xrs5 (Ku80 mutant), 5 to 20 µM SQAP, significant from 10 µM), “reduced”. In addition, in [4], the chromosome-type aberrations result is reported as “approximately 2.4”. Also, in series [5] (1 Gy, after 2 h, with SQAP), the “residual PCC levels” value is recorded as roughly 4.8. Further, the “number of G2-PCC chromatid breaks” value in series [5] (immediately after 1 Gy irradiation, SQAP-treated) was “approximately 10”. Also, in series [6], the “sensitization enhancement ratio (SER)” value was determined as 1.3. For the same molecule, the HDAC1 expression entry in series [7] is listed as “reduces”. For the same molecule, in series [8], the PARP inhibition entry was “inhibitory effect”. Also, the PARG inhibition result in [9] is “inhibitory effect”. Moreover, the adverse systemic events entry in [10] is given as “not detected”. In addition, the “clearance from normal tissues and persistence in tumors” value in [11] is listed as “rapidly cleared from normal tissues but persists in tumors for several hours”.
